From patent publication US20030088061A1, “Materials and methods to modulate ligand binding/enzymatic activity of alpha/beta proteins containing an allosteric regulatory site” (priority 2000, published 2003) come the findings set out here.

T2 sequence (P13612 34-1032): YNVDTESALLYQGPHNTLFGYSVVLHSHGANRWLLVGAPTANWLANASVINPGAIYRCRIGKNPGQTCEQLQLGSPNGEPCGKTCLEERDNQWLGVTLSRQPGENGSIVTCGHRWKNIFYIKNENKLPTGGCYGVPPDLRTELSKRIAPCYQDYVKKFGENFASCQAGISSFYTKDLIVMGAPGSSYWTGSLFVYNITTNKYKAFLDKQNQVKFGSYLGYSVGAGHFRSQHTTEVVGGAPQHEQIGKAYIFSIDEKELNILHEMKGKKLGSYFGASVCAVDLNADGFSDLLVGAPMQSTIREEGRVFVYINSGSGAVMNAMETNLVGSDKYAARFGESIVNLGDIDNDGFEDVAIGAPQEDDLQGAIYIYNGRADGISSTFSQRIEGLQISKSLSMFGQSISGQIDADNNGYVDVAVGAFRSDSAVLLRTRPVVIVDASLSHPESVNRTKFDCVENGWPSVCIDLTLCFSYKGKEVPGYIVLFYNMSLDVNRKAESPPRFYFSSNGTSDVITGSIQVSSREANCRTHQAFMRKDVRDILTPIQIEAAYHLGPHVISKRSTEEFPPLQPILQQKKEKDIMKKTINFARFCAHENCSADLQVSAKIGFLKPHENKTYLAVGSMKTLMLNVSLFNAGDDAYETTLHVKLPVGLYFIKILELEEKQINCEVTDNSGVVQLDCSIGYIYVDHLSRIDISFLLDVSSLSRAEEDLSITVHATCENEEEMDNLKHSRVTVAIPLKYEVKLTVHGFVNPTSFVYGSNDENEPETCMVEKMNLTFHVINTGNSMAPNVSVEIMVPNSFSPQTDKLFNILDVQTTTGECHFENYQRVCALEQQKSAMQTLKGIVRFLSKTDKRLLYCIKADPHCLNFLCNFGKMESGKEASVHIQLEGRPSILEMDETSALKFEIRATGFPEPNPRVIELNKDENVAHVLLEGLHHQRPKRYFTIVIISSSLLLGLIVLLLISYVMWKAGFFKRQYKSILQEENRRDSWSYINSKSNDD
T2 sequence (P26010 20-798): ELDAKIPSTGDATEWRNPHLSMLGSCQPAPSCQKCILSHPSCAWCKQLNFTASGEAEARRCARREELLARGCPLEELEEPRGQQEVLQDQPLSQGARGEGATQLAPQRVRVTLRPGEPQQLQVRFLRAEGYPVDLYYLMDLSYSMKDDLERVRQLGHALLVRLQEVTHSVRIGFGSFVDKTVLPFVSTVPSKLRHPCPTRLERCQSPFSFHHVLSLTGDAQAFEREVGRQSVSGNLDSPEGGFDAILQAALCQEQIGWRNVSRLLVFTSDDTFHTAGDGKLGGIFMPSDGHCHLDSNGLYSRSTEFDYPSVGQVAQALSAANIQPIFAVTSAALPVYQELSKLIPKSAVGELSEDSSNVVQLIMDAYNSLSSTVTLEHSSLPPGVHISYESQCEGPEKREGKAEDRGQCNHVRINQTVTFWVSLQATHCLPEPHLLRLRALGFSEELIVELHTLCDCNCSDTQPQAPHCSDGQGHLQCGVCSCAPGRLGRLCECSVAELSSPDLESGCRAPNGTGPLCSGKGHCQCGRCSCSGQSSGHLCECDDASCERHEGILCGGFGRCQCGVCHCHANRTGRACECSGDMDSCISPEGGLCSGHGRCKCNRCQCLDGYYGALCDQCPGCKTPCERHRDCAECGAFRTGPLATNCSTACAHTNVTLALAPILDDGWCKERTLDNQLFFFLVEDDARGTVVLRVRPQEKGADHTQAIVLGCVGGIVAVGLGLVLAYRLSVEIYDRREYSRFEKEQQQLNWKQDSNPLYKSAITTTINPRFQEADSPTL
Sequence of α4β1 (P13612 34-1032): as the sequence (P13612 34-1032) above
Sequence of α4β1 (P05556 21-798): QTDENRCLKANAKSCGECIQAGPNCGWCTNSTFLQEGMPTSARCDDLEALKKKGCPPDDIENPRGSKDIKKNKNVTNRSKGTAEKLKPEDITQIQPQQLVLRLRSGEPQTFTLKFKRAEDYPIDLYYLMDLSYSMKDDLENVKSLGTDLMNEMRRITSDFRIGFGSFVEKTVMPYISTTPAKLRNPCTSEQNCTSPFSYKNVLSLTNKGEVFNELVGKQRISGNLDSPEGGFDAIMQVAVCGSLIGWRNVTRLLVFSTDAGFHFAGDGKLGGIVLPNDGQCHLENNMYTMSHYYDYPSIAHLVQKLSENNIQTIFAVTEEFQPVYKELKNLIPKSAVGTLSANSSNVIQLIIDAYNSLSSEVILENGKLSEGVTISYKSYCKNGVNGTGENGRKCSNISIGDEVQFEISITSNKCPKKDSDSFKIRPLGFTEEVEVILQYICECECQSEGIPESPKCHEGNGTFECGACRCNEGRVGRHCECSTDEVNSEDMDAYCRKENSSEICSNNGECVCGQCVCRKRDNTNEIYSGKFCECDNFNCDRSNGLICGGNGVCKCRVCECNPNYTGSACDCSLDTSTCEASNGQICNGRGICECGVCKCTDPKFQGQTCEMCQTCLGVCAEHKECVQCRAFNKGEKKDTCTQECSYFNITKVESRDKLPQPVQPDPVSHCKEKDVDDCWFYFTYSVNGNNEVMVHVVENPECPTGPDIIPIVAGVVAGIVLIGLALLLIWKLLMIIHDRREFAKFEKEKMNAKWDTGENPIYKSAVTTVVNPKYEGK

The first assay addresses T1, αdβ2 (Homo sapiens, UniProt P05107+Q13349).
T1 construct: expressed in transfected cells; host or cells: JY cells, plasmid pMHneo/aD
Nature of the assay: JY/αdβ2 cell adhesion to VCAM. The class given is cell-based. The following applies: PMA-treated JY cells. The protocol: (§1) To assess the selectivity of each compound, an IC50 value was determined for additional binding partner compounds JY/αVβ3 and vitronectin, JY/α4β1 and VCAM/Ig, JY/αdβ2 and VCAM, JY/[…] and ICAM-1, JY/αMβ2 and iC3b, and JY/α4β7 and MAdCAM-1.
(§2) For each IC50 assay, 50 μl of the ligand diluted in 50 mM bicarbonate buffer (pH 9.6) was dispensed per well of an Immulon-4 plate. A single plate was used to test two different ligands, each in triplicate, The coating concentration for the various ligands was as follows: VCAM-1/Ig at 2.0 μg/ml; ICAM-1/Ig at 5.0 μg/ml; vitronectin at 0.5 μg/ml; MAdCAM-1/Ig at 3.0 μg/ml, and iC3b at 5.0 μg/ml. The capture antibody, e.g. anti-CD18 monoclonal antibody TS1/22, was added at a concentration of 10 μg/ml in 50 μl/well. Ligand-coated plates were covered and stored overnight at 4° C. The following day, the contents of each well was decanted, and each plate was washed three times with 200 μl/well D-PBS. The plate was then blocked by the addition of 300 μl/well of 1% BSA/D-PBS solution. Each plate was again covered and incubated at room temperature for at least 1 hour.
(§3) Prior to transfer to the adhesion plate, the compounds were initially diluted by transferring 4.2 μl of the diluted compounds to a 96-well deepwell titer plate containing 0.7 ml/well of RPMI 1640, 0.1% BSA, and 3 ng/ml PMA (Sigma Corp., St. Louis, Mo.) pre-warmed to 37° C. The 1% BSA/D-PBS blocking solution was decanted from the 96-well Immulon-4 plates and replaced with 0.2 ml of diluted compound. For each 96-well plate to be screened, approximately 8×10^6 cells were collected by centrifugation and resuspended in adhesion media (RPMI 1640 containing 0.1% BSA) to a final concentration of 10^6/ml. To prevent PMA-dependent homotypic aggregation in the adhesion assay, the anti-CD18 antibody 22F12C (ICOS Corp., Bothell, Wash.) was added to the cell suspensions to a final concentration of 10 μg/ml, and the cells were incubated at 37° C. for 15 min. This antibody was not added to CD18-dependent adhesion assays involving JY/αLβ2, JY/αdβ2 or JY/αMβ2 and their corresponding ligands ICAM-1, VCAM-1, or iC3b.
(§4) The adhesion assay was initiated by addition of 100 μl of the cell suspension to each well of the Immulon-4 plate. […] Adherent cells were quantitated by determining the absorbance at 570 nm in a plate spectrophotometer. The percentage of cell binding was determined by using the mean values for each triplicate in a given assay and the formula below. […]
(§5) The four compounds Cmpd K, Cmpd W, Cmpd Z, Cmpd D identified in the primary screen were selected for further specificity profiling, whereby their IC50 values were determined in additional integrin-dependent adhesive events. […]
In the case of `O=C(NCc1cccnc1)c1ccccc1C(=O)Nc1sc2ccccc2c1Cl` [Cmpd K], the IC50 is > 40 µM.
As to `CC(CN(C)C)NCc1ccccc1Sc1ccc(C(C)(C)C)cc1` (stereo not shown) [Cmpd Z], the IC50 is > 40 µM.
For the compound `CC(=O)Oc1ccccc1C(=O)n1c(-c2ccccc2)cc2ccccc21` [Cmpd D], the IC50 is > 40 µM.
Turning to `Nc1ccc(Sc2ccc(NC(=O)CCc3ccccc3)cc2)c(Cl)c1` [Cmpd W], the IC50 is > 40 µM.

A further assay has as its target T2, α4β7 (Homo sapiens, UniProt P13612+P26010).
T2 construct: endogenous in cells; host or cells: JY cells
Briefly: JY/α4β7 cell adhesion to MAdCAM-1/Ig. The class given is cell-based. The following applies: PMA-treated JY cells. As for the experimental part: as §1, §2, §3, §4, §5
On to `O=C(NCc1cccnc1)c1ccccc1C(=O)Nc1sc2ccccc2c1Cl` [Cmpd K], for which the 50% inhibitory concentration (IC50) came out at 4 µM.
The same measure, in the same setting: as for `CC(CN(C)C)NCc1ccccc1Sc1ccc(C(C)(C)C)cc1` (stereo not shown) [Cmpd Z], the figure is 11 µM.
Same read-out and setting: the result for `CC(=O)Oc1ccccc1C(=O)n1c(-c2ccccc2)cc2ccccc21` [Cmpd D] reads 4 µM; that for `Nc1ccc(Sc2ccc(NC(=O)CCc3ccccc3)cc2)c(Cl)c1` [Cmpd W], 5 µM.

For another assay, the target named is T3, αVβ3 (Homo sapiens, UniProt P05106+P06756).
T3 construct: endogenous in cells; host or cells: JY cells
T3 sequence (P06756 31-889 limits assumed): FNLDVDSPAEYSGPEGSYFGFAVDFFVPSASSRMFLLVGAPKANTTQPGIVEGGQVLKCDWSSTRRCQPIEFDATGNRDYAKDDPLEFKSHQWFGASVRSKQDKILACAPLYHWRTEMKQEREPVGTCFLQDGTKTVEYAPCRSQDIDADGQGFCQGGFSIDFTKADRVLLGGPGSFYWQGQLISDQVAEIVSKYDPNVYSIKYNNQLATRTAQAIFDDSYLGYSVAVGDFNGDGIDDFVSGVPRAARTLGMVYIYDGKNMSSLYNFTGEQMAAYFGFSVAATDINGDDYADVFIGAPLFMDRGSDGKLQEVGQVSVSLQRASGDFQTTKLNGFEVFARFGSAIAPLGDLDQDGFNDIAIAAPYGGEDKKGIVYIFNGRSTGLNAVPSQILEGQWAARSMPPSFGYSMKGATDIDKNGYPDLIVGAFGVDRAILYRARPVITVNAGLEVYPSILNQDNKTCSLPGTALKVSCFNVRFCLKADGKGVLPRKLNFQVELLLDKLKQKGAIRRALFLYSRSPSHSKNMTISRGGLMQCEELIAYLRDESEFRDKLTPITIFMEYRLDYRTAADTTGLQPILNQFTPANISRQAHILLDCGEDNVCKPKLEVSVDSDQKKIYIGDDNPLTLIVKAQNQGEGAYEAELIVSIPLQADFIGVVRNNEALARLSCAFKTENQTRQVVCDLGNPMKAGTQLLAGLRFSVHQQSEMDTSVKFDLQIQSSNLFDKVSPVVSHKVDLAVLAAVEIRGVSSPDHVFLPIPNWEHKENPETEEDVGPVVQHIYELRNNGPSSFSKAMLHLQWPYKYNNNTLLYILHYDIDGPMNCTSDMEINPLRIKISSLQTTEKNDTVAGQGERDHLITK
T3 sequence (P06756 891-1048 partner limits assumed): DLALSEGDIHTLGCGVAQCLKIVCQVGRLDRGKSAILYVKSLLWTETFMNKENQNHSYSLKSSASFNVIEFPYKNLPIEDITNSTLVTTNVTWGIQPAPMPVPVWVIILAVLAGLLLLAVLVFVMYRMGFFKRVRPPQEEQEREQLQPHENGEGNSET
T3 sequence (P05106 27-788): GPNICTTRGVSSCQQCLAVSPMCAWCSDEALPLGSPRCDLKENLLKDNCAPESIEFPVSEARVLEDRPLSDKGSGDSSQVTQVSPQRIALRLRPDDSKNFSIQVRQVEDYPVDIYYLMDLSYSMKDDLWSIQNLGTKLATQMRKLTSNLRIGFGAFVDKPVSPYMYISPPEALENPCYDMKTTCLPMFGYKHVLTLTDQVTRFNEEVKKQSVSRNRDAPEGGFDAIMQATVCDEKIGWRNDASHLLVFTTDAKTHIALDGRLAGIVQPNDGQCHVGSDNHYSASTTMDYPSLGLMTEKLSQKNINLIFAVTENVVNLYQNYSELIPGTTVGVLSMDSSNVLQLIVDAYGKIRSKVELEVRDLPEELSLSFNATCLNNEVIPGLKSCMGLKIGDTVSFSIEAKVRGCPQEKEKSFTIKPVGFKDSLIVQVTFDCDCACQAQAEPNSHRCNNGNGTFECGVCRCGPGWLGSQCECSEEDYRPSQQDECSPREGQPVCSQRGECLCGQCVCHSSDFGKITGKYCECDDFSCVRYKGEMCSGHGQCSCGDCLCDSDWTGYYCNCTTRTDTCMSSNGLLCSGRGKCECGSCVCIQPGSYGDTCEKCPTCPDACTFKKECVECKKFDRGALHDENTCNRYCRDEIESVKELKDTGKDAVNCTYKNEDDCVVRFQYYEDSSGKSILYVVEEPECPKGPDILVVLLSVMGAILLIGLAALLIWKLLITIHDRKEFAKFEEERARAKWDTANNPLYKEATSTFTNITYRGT
Nature of the assay: JY/αVβ3 cell adhesion to vitronectin. In kind it is cell-based. The following applies: PMA-treated JY cells; read-out: VN αVβ3 IC50. The protocol: as §1, §2
(§6) Prior to transfer to the adhesion plate, the compounds were initially diluted by transferring 4.2 μl of the diluted compounds to a 96-well deepwell titer plate containing 0.7 ml/well of RPMI 1640, 0.1% BSA, and 3 ng/ml PMA (Sigma Corp., St. Louis, Mo.) pre-warmed to 37° C. The 1% BSA/D-PBS blocking solution was decanted from the 96-well Immulon-4 plates and replaced with 0.2 ml of diluted compound. […]
as §4, §5
Take `O=C(NCc1cccnc1)c1ccccc1C(=O)Nc1sc2ccccc2c1Cl` [Cmpd K]: the concentration for half-maximal inhibition (IC50) was found to be 6 µM.
As to `CC(=O)Oc1ccccc1C(=O)n1c(-c2ccccc2)cc2ccccc21` [Cmpd D], the IC50 was 4 µM.
For `Nc1ccc(Sc2ccc(NC(=O)CCc3ccccc3)cc2)c(Cl)c1` [Cmpd W], the IC50 stood at 8 µM.

The target in the next assay is T4, αLβ2 (Homo sapiens, UniProt P05107+P20701).
T4 construct: endogenous in cells; host or cells: JY cells
Briefly: JY/αLβ2 cell adhesion to ICAM-1/Ig. The class given is cell-based. The following applies: PMA-treated JY cells. The protocol: as §1, §2, §3, §4, §5
Take `O=C(NCc1cccnc1)c1ccccc1C(=O)Nc1sc2ccccc2c1Cl` [Cmpd K]: the half-maximal inhibitory concentration (IC50) turned out to be 11 µM.
Compound `CC(CN(C)C)NCc1ccccc1Sc1ccc(C(C)(C)C)cc1` (stereo not shown) [Cmpd Z] registered an IC50 of 20 µM.
For `CC(=O)Oc1ccccc1C(=O)n1c(-c2ccccc2)cc2ccccc21` [Cmpd D], the IC50 was determined as 28 µM.
`Nc1ccc(Sc2ccc(NC(=O)CCc3ccccc3)cc2)c(Cl)c1` [Cmpd W] had an IC50 of 30 µM.

Another assay concerns the target T5, αMβ2 (Homo sapiens, UniProt P05107+P11215).
T5 construct: expressed in transfected cells; host or cells: JY (human B lymphoblastoid) cells
Briefly: JY/αMβ2 cell adhesion to iC3b. In kind it is cell-based. The following applies: PMA-treated JY cells. As for the experimental part:
as §1, §2, §6, §4, §5
Turning to `O=C(NCc1cccnc1)c1ccccc1C(=O)Nc1sc2ccccc2c1Cl` [Cmpd K], inhibition was half-maximal at 4 µM (IC50).
Still for that read-out and setting: as for `CC(=O)Oc1ccccc1C(=O)n1c(-c2ccccc2)cc2ccccc21` [Cmpd D], the figure is 7 µM; as for `Nc1ccc(Sc2ccc(NC(=O)CCc3ccccc3)cc2)c(Cl)c1` [Cmpd W], 4 µM.

The next assay addresses α4β1 (Homo sapiens, UniProt P05556+P13612). Nature of the assay: JY/α4β1 cell adhesion to VCAM-1/Ig. The following applies: PMA-treated JY cells. Also on record: host or cells: JY cells. The class given is cell-based. The protocol:
as §1, §2, §3, §4, §5
Turning to `O=C(NCc1cccnc1)c1ccccc1C(=O)Nc1sc2ccccc2c1Cl` [Cmpd K], the IC50 was > 40 µM.
Take `CC(CN(C)C)NCc1ccccc1Sc1ccc(C(C)(C)C)cc1` (stereo not shown) [Cmpd Z]: the IC50 was > 40 µM.
As to `CC(=O)Oc1ccccc1C(=O)n1c(-c2ccccc2)cc2ccccc21` [Cmpd D], the concentration for half-maximal inhibition (IC50) was > 40 µM.
Consider `Nc1ccc(Sc2ccc(NC(=O)CCc3ccccc3)cc2)c(Cl)c1` [Cmpd W], for which the IC50 was > 40 µM.
